The test system of data set [1] is A549. Kind of data set: Anti-proliferative activity, CellTiterGlo assay, A549. The settings on record: Homo sapiens; A549, 96 hrs incubation; read-out: Antiproliferative activities IC50, A549. In kind it is cell-based. The method, then:
(§1) The anti-proliferative activities of the compounds against 6 human cancer cell lines were determined by CellTiterGlo assay kit. All cells were obtained from ATCC and cultured as recommended by the vendor. Cells were assayed in exponential growth phase. Sample solution was prepared by 3-fold serial dilution from 30 mM stock for 10 doses in DMSO. Antiproliferative activities were measured by CellTiterGlo assay kit according to the protocol after cells were incubated for 96 hrs in a 37° C., 5% CO2 incubator.
(§2) On the 4th day of incubation, i) 15 μl reagent (CelltiterGlo assay kit) was added per well and plate was shaken (avoiding light) for 2 mins on a plate shaker, ii) the plate was kept (avoiding light) in room temperature for 30 min, and iii) the luminescence value was recorded by Multiplate reader.
On the technique in general: Cellular ATP, detected with luciferase, serves as a proxy for viable cell number.

Data set [2] relates to MDA-MB-231. Kind of data set: Anti-proliferative activity, CellTiterGlo assay, MDA-MB-231. The settings on record: Homo sapiens; MDA-MB-231, 96 hrs incubation; read-out: Antiproliferative activities IC50, MDA-MB-231. Type of data set: cell-based. The method, then: as §1, §2
For data set [3], the system named is LNCaP. Kind of data set: Anti-proliferative activity, CellTiterGlo assay, LNCaP. In kind it is cell-based. The note with it: Homo sapiens, 96 hrs incubation, read-out: Antiproliferative activities IC50, LNCaP. The method, then: as §1, §2
For data set [4], the system named is U87-MG. In words: Anti-proliferative activity, CellTiterGlo assay, U87-MG. Type of data set: cell-based. The settings on record: Homo sapiens, U-87 MG, 96 hrs incubation, read-out: Antiproliferative activities IC50, U87-MG. As to the method: as §1, §2
Data set [5] can be described thus: Stability against mouse liver microsomes. Type of data set: in vitro ADME. The settings on record: mouse LM, 2 μM compound, 60 min, NADPH. The method, then: (§3) Determination of Stability Against Mouse and Human Mirosomes
(§4) Pooled human liver microsomes (Cat. 452161; Lot. 23418) were purchased from Corning and pooled male mouse liver microsomes (Cat. M1000; Lot. 1210302) were purchased from Xenotech. Microsomes were stored at −80° C. prior to use. 40 μL of ultra-pure H2O was used instead of NADPH solution in the negative control. The negative control was used to exclude the misleading factor that was resulted from instability of chemical itself. Samples with NADPH were prepared in duplicate. Negative controls were prepared in singlet.
(§5) The reaction was started with the addition of 4 μL of 200 μM compound solution to each master solution to get the final concentration of 2 μM. Verapamil was used as positive control in the assay. Aliquots of 50 μL were taken from the reaction solution at 0, 15, 30, 45 and 60 min. The reaction was stopped by addition of 4 volumes of cold acetonitrile with IS (200 nM imipramine, 200 nM labetalol and 2 μM ketoprofen). Samples were centrifuged at 3,220 g for 40 minutes. Aliquot of […] of the supernatant was mixed with 90 μL of ultra-pure H2O and then was used for LC-MS/MS analysis. Results are shown in Table 3 by indicating remaining % of the test compound after 60 minutes incubation with liver microsomes from human and mouse in the presence of NADPH.
A general note: Microsomes from liver hold many membrane-bound enzymes, among them those of drug oxidation.

For data set [6], the system named is BxPC-3. In words: Anti-proliferative activity, CellTiterGlo assay, BxPC-3. In kind it is cell-based. The note with it: Homo sapiens; BxPC-3, 96 hrs incubation; read-out: Antiproliferative activities IC50, BxPC-3. The method, then: as §1, §2
Data set [7] in a line: Stability against human liver microsomes. The note with it: 2 μM compound. In kind it is in vitro ADME. The method, then:
as §3, §4, §5

Data set [8] deals with Hep3B human liver cancer xenograft. In words: Antitumor activity in Hep3B human liver cancer xenograft model. Type of data set: in vivo, BALB/c nude mice. The settings on record: po 200 mg/kg once daily 5 days then 100 mg/kg 10 days; alone or in combination of sorafenib (80 mg/kg). The method, then: Antitumor Activity of Compound 5 (po, qd×14) in Hep3B Human Liver Cancer Xenograft Model in BALB/c Nude Mice: Single Agent and Combination With Sorafenib
Each mouse was inoculated subcutaneously on the right flank with Hep3B tumor cells (5×106) in 0.1 ml of MEM-Matrigel mixture (1:1 ratio) for tumor development. The treatment started when the mean tumor size reached approximately 137 mm^3. Mice were then randomized into groups.
Compound 5 was dissolved in the vehicle (95% v/v PEG400+5% Tween 80) and orally administered to the tumor-bearing mice with 200 mg/kg, once daily for the first 5 days, followed by treatment with 100 mg/kg for 10 days.
(In general: In xenograft studies the graft and the host belong to different species.)

Data set [9] deals with HT29. Kind of data set: Anti-proliferative activity, CellTiterGlo assay, HT29. In kind it is cell-based. The note with it: Homo sapiens, HT-29; HT29, 96 hrs incubation; read-out: Antiproliferative activities IC50, HT29. The method, then: as §1, §2
Data set [10] relates to HFD-STZ C57BL/6J mice model. In words: In vivo efficacy in HFD-STZ C57BL/6J mice model. As to the method:
In Vivo Efficacy in HFD-STZ C57BL/6J Mice Model
Diet induced obesity model establishment:
C57BL/6J mice were fed with high fat diet (Research Diets, D12492) for 64 days, and streptozotocin (10 mg/kg) was given orally on day 22 and day 29. Compound treatment was done from day 36 to day 63.
Based on the animal's body weight and oral glucose tolerance test (OGTT) on week 5, mice were randomly assigned to respective groups using a computer-generated randomization procedure.
Blood glucose level was measured with the blood from tail vein every 2nd week by using Accu-Chek Aviva System.
Blood Chemistry Analysis:
Blood samples were obtained from collection on Day 49 and 65, the samples were immediately processed by centrifugation at 4° C., 4,000 g for 15 minutes, and then they were transferred into a new test tube. Lipid profile and full panel blood bio-chemistry parameters were measured by using TOSHIBA TBA-40FR automated biochemical analyzer.

A short description of data set [11]: Solubility in pH4.0 and pH7.4 phosphate buffer solution. In kind it is physicochemical. The settings on record: 2 hr incubation, 25° C. The method, then:
1) Preparation of Stock Solutions
Diclofenac was used as positive control in the assay.
2) Procedures for Solubility Determination
This study was performed in duplicate. […] The filtered samples were diluted with methanol.
3) Samples Analyzed by LC-MS/MS

Data set [12] is described as follows: Stability in acidic pH phosphate buffer solution (hydrolysis to MAC). The note with it: room temperature. In kind it is physicochemical. From the text:
Therefore, the Schiff base derivatives of MAC have the same problem in the metabolic stability as the parent compound, MAC.

[13] abbreviates: OGTT assay, versus group treated with vehicle.
[14] abbreviates: once a day oral treatment for 28 days at 0.25 to 16 mg/kg.

Converted amounts (≈) assume the structure as drawn. Read-outs that look alike come from different tables or passages of the source.

As usually defined, the melting point is the temperature, or range, at which the solid turns liquid. With `COc1c(Cl)c(C)c(C=O)c(O)c1C/C=C(C)/C=C/[C@@]1(C)[C@H](C)CC[C@](C)(O)[C@@H]1C` [Compound 1, 3-chloro-6-hydroxy-5-[(2E,4E)-5-[(1R,2R,3S,6R)-3-hydroxy-1,2,3,6-tetramethylcyclohexyl]-3-methylpenta-2,4-dien-1-yl]-4-methoxy-2-methylbenzaldehyde], the melting point lay within 42 to 43 °C.

The compound `COc1c(Cl)c(C)c(C=O)c(O)c1C/C=C(C)/C=C/[C@@]1(C)[C@H](C)CC/C(=N\O)[C@@H]1C` [Compound 2, 3-chloro-6-hydroxy-5-[(2E,4E)-5-[(1R,2R,3E,6R)-3-(hydroxyimino)-1,2,6-trimethylcyclohexyl]-3-methylpenta-2,4-dien-1-yl]-4-methoxy-2-methylbenzaldehyde] had a melting point of 158 to 160 °C.

As a reminder, the IC50 is the concentration at which inhibition is half-maximal. For `CC(/C=C/[C@@]1(C)[C@H](C)CC/C(=N\O)[C@@H]1C)=C\Cc1c(O)c(C=O)c(C)c(Cl)c1OCF` [Compound 5, 3-chloro-4-(fluoromethoxy)-6-hydroxy-5-[(2E,4E)-5-[(1R,2R,3E,6R)-3-(hydroxyimino)-1,2,6-trimethylcyclohexyl]-3-methylpenta-2,4-dien-1-yl]-2-methylbenzaldehyde], the IC50 in [1] turned out to be 2.7 µM; in [2], 2.6 µM; in data set [3], 1.8 µM; in data set [4], 5.5 µM; in data set [6] it was 3.2 µM; in [9] it was 2.8 µM. In addition, the “Liver microsome stability remaining % after 60 min incubation with NADPH, mouse LM” value in data set [5] was determined as 88%. For the same compound, the “Liver microsome stability remaining % after 60 min incubation with NADPH, human LM” value in data set [7] is on record as 86%. For the same compound, the “effect to reduce the proliferation of the liver cancer cells (tumor size)” value in data set [8] was “significant effect”.

What is called solubility is the concentration that dissolves in the medium under given conditions. Take `CO/N=C/c1c(C)c(Cl)c(OC)c(C/C=C(C)/C=C/[C@@]2(C)[C@H](C)CC/C(=N\OCC(=O)O)[C@@H]2C)c1O` [Compound 19, 2-([[(1E,2R,3R,4R)-3-[(1E,3E)-5-[3-chloro-6-hydroxy-2-methoxy-5-[(1E)-(methoxyimino)methyl]-4-methylphenyl]-3-methylpenta-1,3-dien-1-yl]-2,3,4-trimethylcyclohexylidene]amino]oxy)acetic Acid]: the IC50 in data set [1] turned out to be 22.3 µM; in data set [2], 47.4 µM; in data set [3], 14.6 µM; in data set [4], 20.4 µM; in data set [6] it was 17 µM; in data set [9] it was 22.5 µM. In addition, the “Liver microsome stability remaining % after 60 min incubation with NADPH, mouse LM” value in [5] came out at 89%. Moreover, in [10] (setting [13]), the “OGTT: blood glucose level after 2 hours of glucose administration, lower than control group” value was 30%. Moreover, the “OGTT: glucose AUC lower than control group” value in [10] (setting [13]) is 25%. In addition, in data set [10] (setting [14]), the “decrease of HbA1C level” value is given as −31%. In addition, the “decrease of blood glucose level” value in [10] (setting [14]) is reported as −68%. In addition, in [7], the “Liver microsome stability remaining % after 60 min incubation with NADPH, human LM” value was 94%. In addition, the solubility at 2 h came out at 148 µM (≈ 77.1 µg/mL) in [11] (phosphate buffer (PBS), aqueous buffer, kinetic from dmso stock, pH 4.0 phosphate buffer solution, read-out: Solubility, pH 4.0 PBS) and 23.7 µM (≈ 12.3 µg/mL) in data set [11] (phosphate buffer (PBS), aqueous buffer, kinetic from dmso stock, pH 7.4 phosphate buffer solution, read-out: Solubility, pH 7.4 PBS).

As for `COc1c(Cl)c(C)c(C=NCC(N)=O)c(O)c1C/C=C(C)/C=C/[C@@]1(C)[C@H](C)CCC(=O)[C@@H]1C` [compound #13 in WO2004/074236, reference compound], the “hydrolysis to MAC at pH 4.0 phosphate buffer solution” value in data set [12] was “almost instantly hydrolyzed to MAC”. Further, in data set [11] (pH 4.0 phosphate buffer solution), the “Solubility, pH 4.0 PBS” value is listed as “converted to MAC”. Further, the solubility at 2 h in data set [11] (pH 7.4 phosphate buffer solution, read-out: Solubility, pH 7.4 PBS) was 0.02 µM (≈ 0.0095 µg/mL).
